Measured values published in US11684606B2, “Methods of treating generalized pustular psoriasis with an antagonist of CCR6 or CXCR2” (CHEMOCENTRYX, INC., priority 2018, dated 2023).

Tests used:
[1] = system: imiquimod-treated skin of Balb/c mice; conditions: reported in a previous study; cited from earlier work
[2] = system: CD4 T cells, neutrophils and inflammatory dendritic cells within IL-36-treated skin; assay: Flow cytometry of leukocytes accumulating in IL-36-treated skin; format: in vivo, mouse; conditions: intradermal IL36 mouse model (Example 1)
Method: (§1) For in vivo dosing, mice were dosed subcutaneously with Compound 1.136 once daily (s.c. q.d. in 1% HPMC) at 90 mg/kg unless stated otherwise, starting at day 0 of a study. The in vivo dose was predicted based on in vitro potency and the pharmacokinetic response to a single dose in mice. The minimum antagonist concentration (at trough) to fully cover a gradient-sensing chemoattractant receptor has been determined to correspond with the IC90 concentration (Schall, T. J., and A. E. Proudfoot. 2011. Overcoming hurdles in developing successful drugs targeting chemokine receptors. Nat Rev Immunol 11: 355-363).
Flow cytometry of leukocytes. Ears or excised skin samples were digested in collagenase A and 1 U/ml DNAse I with agitation for 30 min at 37° C. Cells were then dislodged from skin, filtered through a […] sieve, washed and re-suspended in FACS buffer (PBS with 10% FBS) for analysis.
Directly conjugated Monoclonal antibodies were from R&D Systems (Minneapolis, Minn.), BioLegend (San Diego, Calif.), or eBioscience/ThermoFisher (San Diego, Calif.). CD45.2 (104) in AlexaFluor488, Ly6C (HK1.4) in PE, CD90.2 (30-H12) in Per CP-Cy5.5, TCRVγ4 (UC3-10A6) in PE-Cy7, TCRβ (H57-597) in APC, CD4 (GK1.5) in APC-eFluor-780, TCRγδ (GL3) in BV-421, LIVE/DEAD fixable Aqua stain (Molecular Probes, Eugene, Oreg.), CD11c (N418) in BV650, Ly6G (1A4) in BV711 and CD11b (M1/70) in BV785. Flow cytometry data were acquired with a Fortessa (BD Biosciences) cytometer and analyzed using FlowJo v10.2

[3] = system: IL-36α-injected ears of Balb/c mice; assay: Mouse model of IL-36-induced ear thickening (GPP model); format: in vivo; conditions: intradermal IL36 mouse model (Example 1)
Method: as §1
Mouse model of IL-36-induced ear thickening. The right ear of 8-week old Balb/c mice received intradermal injections of recombinant murine IL-36α (150 μg per mouse formulated in PBS; BioLegend) every day for 5 days. Intradermal injections of PBS were given to the left ear as a control. Ear thickness was measured prior to start of study and each day thoughout the study using a digital micrometer. The imiquimod model of psoriasiform dermatitis was performed as previously described (Campbell Jet al. J Immunol. 2017; 199(9):3129-36. van der Fits et al. J Immunol 2009; 182(9):5836-45). Briefly, 5% Imiquimod (Fougera®) was applied daily to the shaved and depilated backs of Balb/c mice for up to 4 days. Control mice were treated with an application of Vaseline. Erythema, desquamation, and skin thickening were scored independently on a scale from 0 to 4 where 0=no disease; 1=slight disease; 2=moderate disease; 3=marked disease; 4=very marked disease (Campbell J et al. J Immunol. 2017; 199(9):3129-36. van der Fits et al. J Immunol 2009; 182(9):5836-45). Skin from the backs of mice was excised at the end of the study and processed for flow cytometry analysis,
Mouse anti-IL-17RA. (R&D Systems) was dosed as a positive control at 200-500 μg per mouse, i.p., q.d.

In the case of `CC(C)(C)[C@@H](Nc1c(Nc2ccc(Cl)c3c2C(=O)NC3)c(=O)c1=O)c1ccc(Cl)o1` [Compound 1.129], the “Inflammation in topical imiquimod-induced model of plaque psoriasis” value [1] is given as “ameliorates inflammation”, the “Accumulation of CD4+αβ T cell population in IL36-inflamed skin” value [2] is given as “preventing accumulation” and the IL36-induced inflammation [3] is given as “reduces IL36-induced inflammation”.
